The text below walks through data of US10975094B2, “Heterocyclic compounds as RSV inhibitors” (Enanta Pharmaceuticals, Inc., priority 2018, dated 2021).

Structures are written as SMILES.

For the first experiment, the system named is Human RSV-A (“Long” strain). Briefly: RSV in vitro cytoprotection assay in HEp-2 cells (ATPlite read-out). The format is cell-based. To be noted: human respiratory syncytial virus, 96 h; HEp-2 cells, genotype A “Long” strain RSV, 4-day incubation, ATPlite; read-out: Human RSV-A (“Long” strain) EC50. From the text: RSV is a single stranded negative sense RNA virus that causes respiratory tract infections which can be dangerous to infants, the elderly, and immunosuppressed individuals. Currently there is no vaccine, and therapeutic options are both costly and of limited effectiveness. These approved treatments are Ribavirin, and Palivizumab/Synagis (a monoclonal antibody). RSV has two genotypes, A and B, which differ primarily in the structure of the virus' surface “G” attachment protein. Our current primary screen focuses on RSV-A and uses an in vitro cytoprotection assay where compounds are added in 2-fold dilutions to cells which are then subjected to fully replicative viral particles. Cell viability is measured several days later along with separate measurements of compound cytotoxicity. This report focuses on the results of our most recent screening of compounds.
HEp-2 cells, (originally derived from tumors grown in irradiated-cortisonised weanling rats that had been injected with epidermoid carcinoma tissue from a person's larynx, but later found to be indistinguishable from HeLa cells by PCR DNA analysis), were used for the culturing of genotype A, “Long” strain RSV. Flasks were inoculated with RSV and viral stocks were collected once cytopathic effect (CPE) was greater than 90%. Viral stocks in 25% sucrose media were snap frozen using liquid nitrogen to increase viral stability. Viral stock titers were quantified by tissue culture infectious dose 50% (TCID50) using 8,000 cells per well and 3-fold viral dilutions across a 96-well plate, cultured for 4 days.
Following extensive parameter testing, the final assay is run as follows: HEp-2 cells are seeded into the inner 60 wells of a 96-well plate at 8,000 cells per well in a volume of 50 μL using Growth Media (DMEM without phenol red, 1% L-Glut, 1% Penn/Strep, 1% nonessential amino acids, 10% FBS). 2-Fold serial dilutions of control and test compounds are added to the wells in duplicate in a total volume of 25 μL. Viral stock is then added to the wells in a volume of 25 μL, bringing the total volume of each well to 100 μL. Each 96-well plate has a control column of 6 wells with cells and virus but no compound (negative control, max CPE), a column with cells but no compound or virus (positive control, minimum CPE), and a column with no cells or virus or compound (background plate/reagent control). The control wells with cells but no virus are given an additional 25 μL of growth media containing an equal quantity of sucrose as those wells receiving the viral stock in order to keep consistent in media and volume conditions. The outer wells of the plate are filled with 125 μL of growth media to act as a thermal and evaporative moat around the test wells. Following a 4-day incubation period, the plates are read using ATPlite (50 μL added per well), which quantifies the amount of ATP (a measure of cell health) present in each well. Assay plates are read using the Envision luminometer. In parallel, cytotoxicity is examined on an additional 96-well plate treated in an identical manner, but substituting the 25 μL of viral stock for 25 μL of growth media. […] EC50 ranges are as follows: A<0.1 μM; B 0.1-0.5 μM; C>0.5 μM
For `Cc1cnc(N2CC3(CCOCC3)C2)c(C(=O)Nc2ccc(C(=O)N3CCc4cc(C(=O)c5nccn5C)sc4-c4ccc(F)cc43)cc2)c1` [Example 1], the EC50 is less than 100 nM.

Take `Cc1cnc(N2CC3(CCOCC3)C2)c(C(=O)Nc2ccc(C(=O)N3CCc4cc(C(=O)c5nc6ccccc6n5C)sc4-c4ccc(F)cc43)cc2)c1` [Example 2]: the EC50 is 100 to 500 nM.

On to `Cc1cnc(N2CC3(CCOCC3)C2)c(C(=O)Nc2ccc(C(=O)N3CCc4cc(C(=O)c5nc6ncccc6[nH]5)sc4-c4ccc(F)cc43)cc2)c1` [Example 3], for which the concentration for a half-maximal effect (EC50) was less than 100 nM.

As for `Cc1cnc(N2CC3(CCOCC3)C2)c(C(=O)Nc2ccc(C(=O)N3CCc4cc(C(=O)c5nc(C)c(C)[nH]5)sc4-c4ccc(F)cc43)cc2)c1` [Example 4], the EC50 is less than 100 nM.

`Cc1cnc(N2CC3(CCOCC3)C2)c(C(=O)Nc2ccc(C(=O)N3CCc4cc(C(=O)c5nc6cc(F)ccc6[nH]5)sc4-c4ccc(F)cc43)cc2)c1` [Example 5]: the EC50 is 100 to 500 nM.

`Cc1cnc(N2CC3(CCOCC3)C2)c(C(=O)Nc2ccc(C(=O)N3CCc4cc(C(=O)c5nc6c(C)cccc6[nH]5)sc4-c4ccc(F)cc43)cc2)c1` [Example 6]: the EC50 is less than 100 nM.

For `Cc1cnc(N2CC3(CCOCC3)C2)c(C(=O)Nc2ccc(C(=O)N3CCc4cc(C(=O)c5nc6c(F)cccc6[nH]5)sc4-c4ccc(F)cc43)cc2)c1` [Example 7], the concentration for a half-maximal effect (EC50) was less than 100 nM.

With `Cc1cnc(N2CC3(CCOCC3)C2)c(C(=O)Nc2ccc(C(=O)N3CCc4cc(C(=O)c5nc6ccccc6[nH]5)sc4-c4ccc(F)cc43)cc2)c1` [Example 8], the EC50 was less than 100 nM.

On to `Cc1cnc(N2CC3(CCOCC3)C2)c(C(=O)Nc2ccc(C(=O)N3CCc4cc(C(=O)c5ncc(C)[nH]5)sc4-c4ccc(F)cc43)cc2)c1` [Example 9], for which the EC50 is less than 100 nM.

Take `Cc1cnc(N2CC3(CCOCC3)C2)c(C(=O)Nc2ccc(C(=O)N3CCc4cc(C(=O)c5nc(C6CC6)c[nH]5)sc4-c4ccc(F)cc43)cc2)c1` [Example 10]: the EC50 was 100 to 500 nM.

In the case of `Cc1cnc(N2CC3(CCOCC3)C2)c(C(=O)Nc2ccc(C(=O)N3CCc4cc(C(=O)c5nc6ccccc6[nH]5)sc4-c4ccccc43)cc2)c1` [Example 11], the EC50 is less than 100 nM.

In the case of `Cc1cnc(N2CC3(CCOCC3)C2)c(C(=O)Nc2ccc(C(=O)N3CCc4cc(C(=O)c5nc6ccccc6[nH]5)oc4-c4ccccc43)cc2)c1` [Example 12], the EC50 is less than 100 nM.

As to `Cc1cnc(N2CC3(CCOCC3)C2)c(C(=O)Nc2ccc(C(=O)N3CCc4cc(C(=O)c5nc(C)c(C)[nH]5)oc4-c4ccccc43)cc2)c1` [Example 13], the EC50 is less than 100 nM.

As to `Cc1cnc(N2CC3(CCOCC3)C2)c(C(=O)Nc2ccc(C(=O)N3CCc4cc(C(=O)c5ncc(C)[nH]5)oc4-c4ccccc43)cc2)c1` [Example 14], the EC50 is less than 100 nM.

Consider `Cc1cnc(N2CC3(CCOCC3)C2)c(C(=O)Nc2ccc(C(=O)N3CCc4cc(C(=O)c5nc6c(C)cccc6[nH]5)oc4-c4ccccc43)cc2)c1` [Example 15], for which the EC50 was less than 100 nM.

`Cc1cnc(N2CC3(CCOCC3)C2)c(C(=O)Nc2ccc(C(=O)N3CCc4cc(C(=O)c5nc6c(F)cccc6[nH]5)oc4-c4ccccc43)cc2)c1` [Example 16]: the EC50 was less than 100 nM.

In the case of `Cc1cnc(N2CC3(CCOCC3)C2)c(C(=O)Nc2ccc(C(=O)N3CCc4cc(C(=O)c5nc6c([nH]5)CCCC6)oc4-c4ccccc43)cc2)c1` [Example 17], the EC50 was less than 100 nM.

Turning to `Cc1cnc(N2CC3(CCOCC3)C2)c(C(=O)Nc2ccc(C(=O)N3CCc4cc(C(=O)c5nc6ccccc6n5C)oc4-c4ccccc43)cc2)c1` [Example 18], the EC50 is less than 100 nM.

As for `Cc1cnc(N2CC3(CCOCC3)C2)c(C(=O)Nc2ccc(C(=O)N3CCc4cc(C(=O)c5nccn5C)sc4-c4ncccc43)cc2)c1` [Example 19], the EC50 was less than 100 nM.

`Cc1cnc(N2CC3(CCOCC3)C2)c(C(=O)Nc2ccc(C(=O)N3CCc4cc(C(=O)c5nc6c(C)cccc6[nH]5)sc4-c4ncccc43)cc2)c1` [Example 20]: the EC50 was greater than 500 nM.

Consider `Cc1cnc(N2CC3(CCOCC3)C2)c(C(=O)Nc2ccc(C(=O)N3CCc4cc(C(=O)c5nc6ccccc6[nH]5)sc4-c4ncccc43)cc2)c1` [Example 21], for which the EC50 is less than 100 nM.

In the case of `Cc1cnc(N2CC3(CCOCC3)C2)c(C(=O)Nc2ccc(C(=O)N3CCc4cc(C(=O)c5nc6c([nH]5)CCCC6)sc4-c4ncccc43)cc2)c1` [Example 23], the EC50 was less than 100 nM.

In the case of `Cc1cnc(N2CC3(CCOCC3)C2)c(C(=O)Nc2ccc(C(=O)N3CCc4cc(C(=O)c5nc6c([nH]5)CCC6)sc4-c4ncccc43)cc2)c1` [Example 24], the EC50 was less than 100 nM.

Consider `Cc1cnc(N2CC3(CCOCC3)C2)c(C(=O)Nc2ccc(C(=O)N3CCc4cc(C(=O)c5nc6ccccc6n5C)sc4-c4ncccc43)cc2)c1` [Example 25], for which the EC50 is 100 to 500 nM.

As for `Cc1cnc(N2CC3(CCOCC3)C2)c(C(=O)Nc2ccc(C(=O)N3CCc4cc(C(=O)c5nc6c(F)cccc6[nH]5)sc4-c4ncccc43)cc2)c1` [Example 26], the EC50 was less than 100 nM.

Regarding `Cc1ccc(C(=O)Nc2ccc(C(=O)N3CCc4c(sc(C(=O)c5nc6ccccc6[nH]5)c4F)-c4ccccc43)cc2)c(N2CC3(CCOCC3)C2)n1` [Example 27], the EC50 is greater than 500 nM.

Turning to `Cc1ccc(C(=O)Nc2ccc(C(=O)N3CCc4c(sc(C(=O)c5nccn5C)c4F)-c4ccccc43)cc2)c(N2CC3(CCOCC3)C2)n1` [Example 28], the EC50 was less than 100 nM.

For the compound `Cc1cnc(N2CC3(CCOCC3)C2)c(C(=O)Nc2ccc(C(=O)N3CCc4cc(C(=O)c5ncc6ccccn56)sc4-c4ccc(F)cc43)cc2)c1` [Example 29], the EC50 is less than 100 nM.

Regarding `Cc1cnc(N2CC3(CCOCC3)C2)c(C(=O)Nc2ccc(C(=O)N3CCc4cc(C(=O)c5nc6ccccc6o5)sc4-c4ccc(F)cc43)cc2)c1` [Example 30], the EC50 was less than 100 nM.

Take `Cc1cnc(N2CC3(CCOCC3)C2)c(C(=O)Nc2ccc(C(=O)N3CCc4cc(C(=O)c5nnc(C)o5)sc4-c4ccc(F)cc43)cc2)c1` [Example 31]: the EC50 fell in the range of 100 to 500 nM.

For `Cc1cnc(N2CC3(CCOCC3)C2)c(C(=O)Nc2ccc(C(=O)N3CCc4cc(C(=O)c5nc(C#N)c[nH]5)sc4-c4ccc(F)cc43)cc2)c1` [Example 32], the EC50 is less than 100 nM.

`Cc1cnc(N2CC3(CCOCC3)C2)c(C(=O)Nc2ccc(C(=O)N3CCc4cc(C(=O)c5nc(C(F)(F)F)c[nH]5)sc4-c4ccc(F)cc43)cc2)c1` [Example 33]: the EC50 is less than 100 nM.

On to `Cc1cnc(N2CC3(CCOCC3)C2)c(C(=O)Nc2ccc(C(=O)N3CCc4cc(C(=O)c5cc(C(F)(F)F)n[nH]5)sc4-c4ccc(F)cc43)cc2)c1` [Example 34], for which the EC50 was 100 to 500 nM.

`Cc1cnc(N2CC3(CCOCC3)C2)c(C(=O)Nc2ccc(C(=O)N3CCc4cc(C(=O)c5cc(C)n[nH]5)sc4-c4ccc(F)cc43)cc2)c1` [Example 35]: the EC50 was less than 100 nM.

Turning to `Cc1cnc(N2CC3(CCOCC3)C2)c(C(=O)Nc2ccc(C(=O)N3CCc4cc(C(=O)c5[nH]nnc5C)sc4-c4ccc(F)cc43)cc2)c1` [Example 36], the EC50 is less than 100 nM.

Turning to `Cc1ccc(C(=O)Nc2ccc(C(=O)N3CCc4cc(C(=O)c5[nH]nnc5C)sc4-c4ccc(F)cc43)cc2)c(N2CC3(CCOCC3)C2)n1` [Example 37], the EC50 was 100 to 500 nM.

`Cc1cnc(N2CC3(CCOCC3)C2)c(C(=O)Nc2ccc(C(=O)N3CCc4cc(C(=O)c5ccccc5C)sc4-c4ccccc43)cc2)c1` [Example 38]: the EC50 was greater than 500 nM.

As for `Cc1cnc(N2CC3(CCOCC3)C2)c(C(=O)Nc2ccc(C(=O)N3CCc4cc(C(=O)c5ccccc5F)sc4-c4ccccc43)cc2)c1` [Example 39], the EC50 lay in the range of 100 to 500 nM.

Take `Cc1cnc(N2CC3(CCOCC3)C2)c(C(=O)Nc2ccc(C(=O)N3CCc4cc(C(=O)c5ncccc5C)sc4-c4ccccc43)cc2)c1` [Example 40]: the EC50 lay within 100 to 500 nM.

Staying with this experiment, now noted: human respiratory syncytial virus, HEp-2.
`O=C(Nc1ccccc1F)N[C@H]1N=C(c2ccccc2)c2ccccc2NC1=O` [RSV-604, reference compound]: the EC50 was roughly 2400 nM.

One may read the EC50 as the concentration needed to bring the measured effect to its halfway point.
